Where two headings read alike, the source gives them in different places.
Molecular target: RET G810R (Homo sapiens (Human), UniProt P07949, G810R)
Experiment: HTRF KinEASE-TK kinase activity test, RET G810R
Settings: for inhibitory activity against RET G810R relative to that of selpercatinib (LOXO-292): fold versus selpercatinib (LOXO-292)
[1] = read-out: RET G810R IC50, HTRF kinase assay

RET G810R, sequence (P07949 29-1114 G810R): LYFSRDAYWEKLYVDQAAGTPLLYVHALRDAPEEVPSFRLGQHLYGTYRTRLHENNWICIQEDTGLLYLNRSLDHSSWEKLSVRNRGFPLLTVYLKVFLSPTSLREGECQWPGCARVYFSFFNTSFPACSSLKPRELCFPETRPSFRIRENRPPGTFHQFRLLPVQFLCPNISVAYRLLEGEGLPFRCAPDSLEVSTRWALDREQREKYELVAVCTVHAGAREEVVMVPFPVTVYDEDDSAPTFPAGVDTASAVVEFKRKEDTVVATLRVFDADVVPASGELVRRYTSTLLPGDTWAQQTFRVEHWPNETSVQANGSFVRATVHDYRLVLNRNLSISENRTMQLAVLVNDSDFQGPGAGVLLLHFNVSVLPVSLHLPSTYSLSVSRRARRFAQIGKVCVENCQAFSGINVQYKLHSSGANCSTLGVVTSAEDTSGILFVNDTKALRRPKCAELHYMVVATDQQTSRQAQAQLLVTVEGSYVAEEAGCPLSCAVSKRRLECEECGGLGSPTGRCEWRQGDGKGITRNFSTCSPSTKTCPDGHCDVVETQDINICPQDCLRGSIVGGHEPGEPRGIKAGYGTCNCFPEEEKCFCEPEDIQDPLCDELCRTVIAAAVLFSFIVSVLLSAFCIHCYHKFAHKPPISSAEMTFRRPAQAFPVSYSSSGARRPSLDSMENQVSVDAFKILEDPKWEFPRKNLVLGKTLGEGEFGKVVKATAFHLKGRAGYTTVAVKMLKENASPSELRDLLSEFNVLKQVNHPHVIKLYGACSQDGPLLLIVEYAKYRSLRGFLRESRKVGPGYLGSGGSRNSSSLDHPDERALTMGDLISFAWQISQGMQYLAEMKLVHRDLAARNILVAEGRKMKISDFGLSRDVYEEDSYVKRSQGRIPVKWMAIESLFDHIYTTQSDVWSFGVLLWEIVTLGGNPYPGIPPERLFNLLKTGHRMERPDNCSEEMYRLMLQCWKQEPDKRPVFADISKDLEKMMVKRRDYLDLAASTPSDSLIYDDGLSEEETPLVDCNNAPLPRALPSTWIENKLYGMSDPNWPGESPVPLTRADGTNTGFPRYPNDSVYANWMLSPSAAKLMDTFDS

inhibitory activity against RET G810R relative to that of selpercatinib (LOXO-292)	IC50 [1]	IC50	Structure (SMILES)
≥ 10 times	2.1 nM	–	O=C(N[C@H]1CCN(c2ccc(-c3cc(OCCF)cn4nc5[nH]ncc5c34)cn2)C[C@@H]1O)c1c(F)cccc1F [Compound 295, N-((3S,4S)-1-(5-(6-(2-fluoroethoxy)-1H-pyrazolo[3′,4′:3,4]pyrazolo[1,5-α]pyridin-4-yl)pyridin-2-yl)-3-hydroxypiperidin-4-yl)-2,6-difluorobenzamide]
≥ 10 times	2.5 nM	–	CCOc1cc(-c2ccc(N3CCC(C)(S(=O)(=O)CC(C)C)CC3)nc2)c2c3cn[nH]c3nn2c1 [Compound 33, 6-ethoxy-4-(6-(4-(isobutylsulfonyl)-4-methylpiperidin-1-yl)pyridin-3-yl)-1H-pyrazolo[3′,4′:3,4]p yrazolo[1,5-α]pyridine]
–	4.1 nM	–	CCOc1cc(-c2ccc(N3CCC4(CC3)CCN4C(=O)c3c(F)cccc3Cl)nc2)c2c3cn[nH]c3nn2c1 [Compound 201, N-(7-(5-(6-ethoxy-1H-pyrazolo[3′,4′:3,4]pyrazolo[1,5-α]pyridin-4-yl)pyridin-2-yl)-1,7-diazaspiro [3.5]nonan-1-yl)-2-chloro-6-fluorobenzamide]
≥ 10 times	2.1 nM	–	O=C(N[C@H]1CCN(c2ccc(-c3cc(OCC(F)F)cn4nc5[nH]ncc5c34)cn2)C[C@@H]1O)c1c(F)cccc1F [Compound 296, N-((3S,4S)-1-(5-(6-(2,2-difluoroethoxy)-1H-pyrazolo[3′,4′:3,4]pyrazolo[1,5-α]pyridin-4-yl)pyridin-2-yl)-3-hydroxypiperidin-4-yl)-2,6-difluorobenzamide]
–	6.3 nM	–	CCOc1cc(-c2ccc(N3CCC(CN4CCCC4)(C(=O)NCC(C)C)CC3)nc2)c2c3cn[nH]c3nn2c1 [Compound 37, 4-(pyrrolidin-1-ylmethyl)-1-(5-(6-ethoxy-1H-pyrazolo[3′,4′:3,4]pyrazolo[1,5-α]pyridin-4-yl)pyridin-2-yl)-N-isobutylpiperidine-4-carboxamide]
≥ 10 times	2.2 nM	–	CCOc1cc(-c2cnc(N3CC[C@H](NC(=O)c4cc(F)ccc4Cl)[C@@H](O)C3)cn2)c2c3cn[nH]c3nn2c1 [Compound 91]
≥ 10 times	0.8 nM	–	CCOc1cc(-c2ccc(N3CC[C@H](NC(=O)c4c(F)cccc4Cl)[C@H](O)C3)nc2)c2c3cn[nH]c3nn2c1 [Compound 275, N-((3R,4S)-1-(5-(6-ethoxy-1H-pyrazolo[3′,4′:3,4]pyrazolo[1,5-α]pyridin-4-yl)pyridin-2-yl)-3-hydroxypiperidin-4-yl)-2-chloro-6-fluorobenzamide]
–	4.3 nM	–	CCOc1cc(-c2cnc(N3CC[C@H](NC(=O)c4c(F)cccc4Cl)[C@@H](O)C3)cn2)c2c3cn[nH]c3nn2c1 [Compound 51]
≥ 10 times	0.9 nM	–	CCOc1cc(-c2ccc(N3CC[C@H](NC(=O)c4c(C)cccc4Cl)[C@H](O)C3)nc2)c2c3cn[nH]c3nn2c1 [Compound 278, 2-chloro-N-((3R,4S)-1-(5-(6-ethoxy-1H-pyrazolo[3′,4′:3,4]pyrazolo[1,5-α]pyridin-4-yl)pyridin-2-yl)-3-hydroxypiperidin-4-yl)-6-methylbenzamide]
≥ 10 times	6.2 nM	–	CCOc1cc(-c2ccc(N3CC[C@H](NS(=O)(=O)c4c(F)cccc4F)[C@H](O)C3)nc2)c2c3cn[nH]c3nn2c1 [Compound 269, N-((3R,4S)-1-(5-(6-ethoxy-1H-pyrazolo[3′,4′:3,4]pyrazolo[1,5-α]pyridin-4-yl)pyridin-2-yl)-3-hydroxypiperidin-4-yl)-2,6-difluorobenzenesulfonamide]
–	7.7 nM	–	CCOc1cc(-c2ccc(N3C[C@H]4CN(C(=O)c5c(F)cccc5Cl)C[C@H]4C3)nc2)c2c3cn[nH]c3nn2c1 [Compound 118, N-((3aR,6aS)-5-(5-(6-ethoxy-1H-pyrazolo[3′,4′:3,4]pyrazolo[1,5-α]pyridin-4-yl)pyridin-2-yl)hexahydropyrrolo[3,4-c]pyrrol-2(1H)-yl)-2-chloro-6-fluorobenzamide]
–	–	9.6 nM	CCOc1cc(-c2ccc(N3CC4CC(C3)N4Cc3ccc(OC)nc3)nc2)c2c3cc[nH]c3nn2c1 [Compound 297, 6-ethoxy-4-(6-(6-((6-methoxypyridin-3-yl)methyl)-3,6-diazabicyclo[3.1.1]heptan-3-yl)pyridin-3-yl)-1H-pyrrolo[2′,3′:3,4]pyrazolo[1,5-α]pyridine]
≥ 10 times	3.5 nM	–	CCOc1cc(-c2ccc(N3CC[C@H](NC(=O)C4(F)CC4)[C@H](O)C3)nc2)c2c3cn[nH]c3nn2c1 [Compound 282, N-((3R,4S)-1-(5-(6-ethoxy-1H-pyrazolo[3′,4′:3,4]pyrazolo[1,5-α]pyridin-4-yl)pyridin-2-yl)-3-hydroxypiperidin-4-yl)-1-fluorocyclopropane-1-carboxamide]
–	9.9 nM	–	CCOc1cc(-c2ccc(N3CC[C@H](NC(=O)C(C)C(C)C)[C@H](O)C3)nc2)c2c3cn[nH]c3nn2c1 (stereo partly drawn) [Compound 283, N-((3R,4S)-1-(5-(6-ethoxy-1H-pyrazolo[3′,4′:3,4]pyrazolo[1,5-α]pyridin-4-yl)pyridin-2-yl)-3-hydroxypiperidin-4-yl)-2,3-dimethylbutanamide]
–	9.4 nM	–	CCOc1cc(-c2ccc(N3CCC(CO)(C(=O)NCC(C)C)CC3)nc2)c2c3cn[nH]c3nn2c1 [Compound 87, 1-(5-(6-ethoxy-1H-pyrazolo[3′,4′:3,4]pyrazolo[1,5-α]pyridin-4-yl)pyridin-2-yl)-4-(hydroxymethy 1)-N-isobutylpiperidine-4-carboxamide]
≥ 10 times	1.2 nM	–	CCOc1cc(-c2ccc(N3CC[C@H](NC(=O)c4cc(F)ccc4C)[C@H](O)C3)nc2)c2c3cn[nH]c3nn2c1 [Compound 277, N-((3R,4S)-1-(5-(6-ethoxy-1H-pyrazolo[3′,4′:3,4]pyrazolo[1,5-α]pyridin-4-yl)pyridin-2-yl)-3-hydroxypiperidin-4-yl)-5-fluoro-2-methylbenzamide]
≥ 10 times	1.3 nM	–	CCOc1cc(-c2ccc(N3CC[C@H](NC(=O)c4c(F)ccc(F)c4F)[C@H](O)C3)nc2)c2c3cn[nH]c3nn2c1 [Compound 274, N-((3R,4S)-1-(5-(6-ethoxy-1H-pyrazolo[3′,4′:3,4]pyrazolo[1,5-α]pyridin-4-yl)pyridin-2-yl)-3-hydroxypiperidin-4-yl)-2,3,6-trifluorobenzamide]
≥ 10 times	0.96 nM	–	CCOc1cc(-c2ccc(N3CC[C@H](NC(=O)c4c(F)cccc4F)[C@H](O)C3)nc2)c2c3cn[nH]c3nn2c1 [Compound 233]

Structure (SMILES)	inhibitory activity against RET G810R relative to that of selpercatinib (LOXO-292)	IC50 [1]	IC50
CCOc1cc(-c2ccc(N3CC4CCC(C3)N4C(=O)c3c(F)cccc3Cl)nc2)c2c3cn[nH]c3nn2c1 [Compound 155, (2-chloro-6-fluoro)((1R,5S)-3-(5-(6-ethoxy-1H-pyrazolo[3′,4′:3,4]pyrazolo[1,5-α]pyridin-4-yl)pyridin-2-yl)-3,8-diazabicyclo[3.2.1]octan-8-yl)benzamide]	–	14.2 nM	–
